Experimental data: PubChem BioAssay (NCI)
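The compound was tested at five concentrations on cells cultured in 96-well plates, with a 48-hour exposure period. GI50: concentration for 50% inhibition of growth. Definition used: TGI = concentration required for complete inhibition of growth.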

Tests used:
Experiment in all cases: growth of human tumour cells (NCI), 48 h
786-0 renal = test system: 786-0 renal
A498 renal = test system: A498 renal
A549 NSCLC = test system: A549 NSCLC
ACHN renal = test system: ACHN renal
BT-549 breast = test system: BT-549 breast
CAKI-1 renal = test system: CAKI-1 renal
CCRF-CEM leukemia = test system: CCRF-CEM leukemia
COLO 205 colon = test system: COLO 205 colon
DU-145 prostate = test system: DU-145 prostate
EKVX NSCLC = test system: EKVX NSCLC
HCC-2998 colon = test system: HCC-2998 colon
HCT-116 colon = test system: HCT-116 colon
HCT-15 colon = test system: HCT-15 colon
HL-60(TB) leukemia = test system: HL-60(TB) leukemia
HOP-62 NSCLC = test system: HOP-62 NSCLC
HOP-92 NSCLC = test system: HOP-92 NSCLC
HS 578T breast = test system: HS 578T breast
HT29 colon = test system: HT29 colon
IGROV1 ovarian = test system: IGROV1 ovarian
K-562 leukemia = test system: K-562 leukemia
KM12 colon = test system: KM12 colon
LOX IMVI melanoma = test system: LOX IMVI melanoma
M14 melanoma = test system: M14 melanoma
MALME-3M melanoma = test system: MALME-3M melanoma
MCF7 breast = test system: MCF7 breast
MDA-MB-231 breast = test system: MDA-MB-231 breast
MDA-MB-435 = test system: MDA-MB-435
MOLT-4 leukemia = test system: MOLT-4 leukemia
NCI-H226 lung = test system: NCI-H226 lung
NCI-H23 lung = test system: NCI-H23 lung
NCI-H460 lung = test system: NCI-H460 lung
NCI-H522 lung = test system: NCI-H522 lung
NCI/ADR-RES ovarian = test system: NCI/ADR-RES ovarian
OVCAR-3 ovarian = test system: OVCAR-3 ovarian
OVCAR-4 ovarian = test system: OVCAR-4 ovarian
OVCAR-5 ovarian = test system: OVCAR-5 ovarian
OVCAR-8 ovarian = test system: OVCAR-8 ovarian
PC-3 prostate = test system: PC-3 prostate
RPMI-8226 leukemia = test system: RPMI-8226 leukemia
RXF 393 renal = test system: RXF 393 renal
SF-268 CNS = test system: SF-268 CNS
SF-295 CNS = test system: SF-295 CNS
SF-539 CNS = test system: SF-539 CNS
SK-MEL-2 melanoma = test system: SK-MEL-2 melanoma
SK-MEL-28 melanoma = test system: SK-MEL-28 melanoma
SK-MEL-5 melanoma = test system: SK-MEL-5 melanoma
SK-OV-3 ovarian = test system: SK-OV-3 ovarian
SN12C renal = test system: SN12C renal
SNB-19 CNS = test system: SNB-19 CNS
SNB-75 CNS = test system: SNB-75 CNS
SR leukemia = test system: SR leukemia
SW-620 colon = test system: SW-620 colon
T-47D breast = test system: T-47D breast
TK-10 renal = test system: TK-10 renal
U251 CNS = test system: U251 CNS
UACC-257 melanoma = test system: UACC-257 melanoma
UACC-62 melanoma = test system: UACC-62 melanoma
UO-31 renal = test system: UO-31 renal

CC(=O)OCC(=O)[C@@]1(O)[C@H](C)C[C@H]2[C@@H]3C=C(C)C4=Cc5c(cnn5-c5ccc(F)cc5)C[C@]4(C)[C@H]3[C@@H](O)C[C@@]21C
GI50 (786-0 renal): 1060 nM | TGI (786-0 renal): 2550 nM | GI50 (A498 renal): 1480 nM | TGI (A498 renal): 3150 nM | GI50 (A549 NSCLC): 1450 nM | TGI (A549 NSCLC): 9960 nM | GI50 (ACHN renal): 2500 nM | TGI (ACHN renal): 9970 nM | GI50 (BT-549 breast): 1770 nM | TGI (BT-549 breast): 4780 nM | GI50 (CAKI-1 renal): 2570 nM | TGI (CAKI-1 renal): 10000 nM | GI50 (CCRF-CEM leukemia): < 15.8 nM | GI50 (COLO 205 colon): 1740 nM | TGI (COLO 205 colon): 3340 nM | GI50 (DU-145 prostate): 2030 nM | TGI (DU-145 prostate): 5170 nM | GI50 (EKVX NSCLC): 1880 nM | TGI (EKVX NSCLC): 10400 nM | GI50 (HCC-2998 colon): 1880 nM | TGI (HCC-2998 colon): 3770 nM | GI50 (HCT-116 colon): 1660 nM | TGI (HCT-116 colon): 3500 nM | GI50 (HCT-15 colon): 1450 nM | TGI (HCT-15 colon): 3630 nM | GI50 (HL-60(TB) leukemia): 4100 nM | TGI (HL-60(TB) leukemia): 9020 nM | GI50 (HOP-62 NSCLC): 1280 nM | TGI (HOP-62 NSCLC): 3070 nM | TGI (HOP-92 NSCLC): 5870 nM | GI50 (HS 578T breast): 1330 nM | TGI (HS 578T breast): 4050 nM | GI50 (HT29 colon): 1320 nM | TGI (HT29 colon): 3070 nM | GI50 (IGROV1 ovarian): 2850 nM | TGI (IGROV1 ovarian): 12800 nM | GI50 (K-562 leukemia): 1150 nM | TGI (K-562 leukemia): > 23200 nM | GI50 (KM12 colon): 1440 nM | TGI (KM12 colon): 2940 nM | GI50 (LOX IMVI melanoma): 1660 nM | TGI (LOX IMVI melanoma): 3800 nM | GI50 (M14 melanoma): 1710 nM | TGI (M14 melanoma): 3500 nM | GI50 (MALME-3M melanoma): 2360 nM | TGI (MALME-3M melanoma): 8980 nM | GI50 (MCF7 breast): 1890 nM | TGI (MCF7 breast): 6240 nM | GI50 (MDA-MB-231 breast): 2560 nM | TGI (MDA-MB-231 breast): 6430 nM | GI50 (MDA-MB-435): 2350 nM | TGI (MDA-MB-435): 7020 nM | GI50 (MOLT-4 leukemia): 1940 nM | TGI (MOLT-4 leukemia): 6760 nM | GI50 (NCI-H226 lung): 2230 nM | TGI (NCI-H226 lung): 9080 nM | GI50 (NCI-H23 lung): 2080 nM | TGI (NCI-H23 lung): 5800 nM | GI50 (NCI-H460 lung): 1470 nM | TGI (NCI-H460 lung): 3160 nM | GI50 (NCI-H522 lung): 1840 nM | TGI (NCI-H522 lung): 3820 nM | GI50 (NCI/ADR-RES ovarian): 1900 nM | TGI (NCI/ADR-RES ovarian): 6820 nM | GI50 (OVCAR-3 ovarian): 1780 nM | TGI (OVCAR-3 ovarian): 3840 nM | GI50 (OVCAR-4 ovarian): 2120 nM | TGI (OVCAR-4 ovarian): 11500 nM | GI50 (OVCAR-5 ovarian): 1410 nM | TGI (OVCAR-5 ovarian): 4570 nM | GI50 (OVCAR-8 ovarian): 2580 nM | TGI (OVCAR-8 ovarian): 11300 nM | GI50 (PC-3 prostate): 1800 nM | TGI (PC-3 prostate): 5060 nM | GI50 (RPMI-8226 leukemia): 161 nM | TGI (RPMI-8226 leukemia): 1140 nM | GI50 (RXF 393 renal): 709 nM | TGI (RXF 393 renal): 2350 nM | GI50 (SF-268 CNS): 2480 nM | TGI (SF-268 CNS): 8390 nM | GI50 (SF-295 CNS): 982 nM | TGI (SF-295 CNS): 5130 nM | GI50 (SF-539 CNS): 473 nM | TGI (SF-539 CNS): 2350 nM | GI50 (SK-MEL-2 melanoma): 2140 nM | TGI (SK-MEL-2 melanoma): 6360 nM | GI50 (SK-MEL-28 melanoma): 1330 nM | TGI (SK-MEL-28 melanoma): 2810 nM | GI50 (SK-MEL-5 melanoma): 1260 nM | TGI (SK-MEL-5 melanoma): 2530 nM | GI50 (SK-OV-3 ovarian): 1290 nM | TGI (SK-OV-3 ovarian): 4570 nM | GI50 (SN12C renal): 1890 nM | TGI (SN12C renal): 7080 nM | GI50 (SNB-19 CNS): 2030 nM | TGI (SNB-19 CNS): 6270 nM | GI50 (SNB-75 CNS): 1190 nM | TGI (SNB-75 CNS): 4140 nM | GI50 (SR leukemia): 2350 nM | TGI (SR leukemia): 7930 nM | GI50 (SW-620 colon): 1800 nM | TGI (SW-620 colon): 3410 nM | GI50 (T-47D breast): 2750 nM | TGI (T-47D breast): 8720 nM | GI50 (TK-10 renal): 1910 nM | TGI (TK-10 renal): 6030 nM | GI50 (U251 CNS): 1250 nM | TGI (U251 CNS): 3270 nM | GI50 (UACC-257 melanoma): 2760 nM | TGI (UACC-257 melanoma): 8540 nM | GI50 (UACC-62 melanoma): 1730 nM | TGI (UACC-62 melanoma): 3780 nM | GI50 (UO-31 renal): 4310 nM | TGI (UO-31 renal): 15600 nM
